The source of these data is patent publication US20200095236A1, “ANTIBACTERIAL COMPOUNDS” (FORGE THERAPEUTICS, INC., priority 2017, published 2020).

Usually MIC stands for the smallest concentration in the dilution series that meets the test's criterion for growth inhibition. Broadly, the IC50 is the concentration at which inhibition is half-maximal.

For experiment [1], the system named is TLR-4 activity of A. baumannii culture supernatants. Briefly: TLR4 assay: TLR4 activity of A. baumannii culture supernatants in HEK-Blue-hTLR4 cells. It counts as cell-based. The settings on record: Acinetobacter baumannii, HEK-Blue hTLR4, read-out: % TLR-4 activity. The method, then: The TLR4 assay measures activity of diluted filter-sterilized A. baumannii culture supernatants. The assay was performed as described in Lin et al, Mbio, 2012. Briefly, A. baumannii was passaged to mid log-phase in the presence of Forge LpxC inhibitors. Culture supernatants were harvested, filter-sterilized and diluted 1:1000. TLR4 activity of the supernatants was tested using HEK-Blue-hTLR4 cells (Invivogen) that carry NF-kB and AP-1 driven SEAP (secreted embryonic alkaline phosphatase) reporter gene.
Exemplary TLR4 assay data (% TLR-4 activity) for compounds in embodiments of the disclosure.

A further experiment relates to S. aureus. As to the kind of experiment: Bacterial susceptibility testing, MIC by broth microdilution (CLSI). Format: cell-based. To be noted: for MIC: Staphylococcus aureus, read-out: S. aureus MIC. The method, then: (§1) Minimal inhibitory concentrations (MIC) were determined by the broth microdilution method in accordance with the Clinical and Laboratory Standards Institute (CLSI) guidelines. In brief, organism suspensions were adjusted to a 0.5 McFarland standard to yield a final inoculum between 3×10^5 and 7×10^5 colony-forming units (CFU)/mL. Drug dilutions and inocula were made in sterile, cation adjusted Mueller-Hinton Broth (Beckton Dickinson). An inoculum volume of 100 μL was added to wells containing 100 μL of broth with 2-fold serial dilutions of drug. All inoculated microdilution trays were incubated in ambient air at 35° C. for 18-24 h. Following incubation, the lowest concentration of the drug that prevented visible growth (OD600 nm<0.05) was recorded as the MIC. Performance of the assay was monitored by the use of laboratory quality-control strains and levofloxacin, a compound with a defined MIC spectrum, in accordance with CLSI guidelines.
(In general: Broth dilution looks for growth in wells or tubes with falling amounts of substance.)

Another experiment relates to E. coli. The description is as above. Format: cell-based. The settings on record: for MIC: Escherichia coli, read-out: E. coli MIC. As for the experimental part:
as §1

A further experiment concerns K. pneumoniae. The description is as above. The settings on record: for MIC: Klebsiella pneumoniae, read-out: K. pneumoniae MIC. Format: cell-based. As for the experimental part:
as §1

The target of another experiment is E. coli LpxC (Escherichia coli, UniProt P0A725). As to the kind of experiment: LpxC Binding Assay (Rapid Fire MS assay). It counts as biochemical.
The mark [2] stands for this setting: broth microdilution, 35° C., 18-24 h.

≈ marks a conversion by molar mass, not a printed value. Read-outs that look alike come from different tables or passages of the source. Some results are limits rather than exact numbers.

Sequence of E. coli LpxC (P0A725 whole entry): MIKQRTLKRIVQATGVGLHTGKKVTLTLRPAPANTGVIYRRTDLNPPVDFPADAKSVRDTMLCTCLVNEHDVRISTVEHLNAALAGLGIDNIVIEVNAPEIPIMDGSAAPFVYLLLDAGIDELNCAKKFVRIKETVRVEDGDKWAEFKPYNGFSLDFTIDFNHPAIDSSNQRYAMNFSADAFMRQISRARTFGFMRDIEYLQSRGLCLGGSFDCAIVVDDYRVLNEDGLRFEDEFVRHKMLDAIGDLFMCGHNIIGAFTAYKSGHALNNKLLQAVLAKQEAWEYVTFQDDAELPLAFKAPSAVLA

With `CC(=O)NC[C@@H](Cc1ccc(C#Cc2ccc(CN3CCOCC3)cc2)cc1)c1nc[nH]c(=O)c1O` [Compound 14, (R)-N-(2-(5-hydroxy-6-oxo-1,6-dihydropyrimidin-4-yl)-3-(4-((4-(morpholinomethyl)phenyl)ethynyl)phenyl)propyl)acetamide], in experiment [1], the activity at 4 µg/mL was greater than 80%, the activity at 8 µg/mL is greater than 80% and the activity at 16 µg/mL is greater than 80%. In the experiment on S. aureus (setting [2]), the MIC was greater than 32 µg/mL. In addition, in the experiment with E. coli (setting [2]), the MIC is 1 to 8 µg/mL (≈ 2.06 to 16.4 µM). For the same molecule, the MIC in the experiment on K. pneumoniae (setting [2]) was 8 to 32 µg/mL (≈ 16.4 to 65.8 µM).

With `O=C(CF)NCC(Cc1ccc(C#Cc2ccc(CCN3CCOCC3)cc2)cc1)c1nc[nH]c(=O)c1O` (centres unmarked) [Compound 17, 2-fluoro-N-(2-(5-hydroxy-6-oxo-1,6-dihydropyrimidin-4-yl)-3-(4-((4-(2-morpholinoethyl)phenyl)ethynyl)phenyl)propyl) acetamide], in the experiment on S. aureus (setting [2]), the “S. aureus MIC” value is “D (D: >32 μg/mL)”. Further, in the experiment with E. coli (setting [2]), the “E. coli MIC” value is reported as “B (B: >1 μg/mL to ≤8.0 μg/mL)”. Further, in the experiment on K. pneumoniae (setting [2]), the “K. pneumoniae MIC” value is on record as “C (C: >8.0 μg/mL to ≤32 μg/mL)”.

Consider `O=C(NCC(Cc1ccc(C#Cc2ccc(CN3CCOCC3)cc2)cc1)c1nc[nH]c(=O)c1O)C(F)(F)F` (centres unmarked) [Compound 18, 2,2,2-trifluoro-N-(2-(5-hydroxy-6-oxo-1,6-dihydropyrimidin-4-yl)-3-(4-((4-(morpholinomethyl)phenyl)ethynyl)phenyl)propyl)acetamide], for which the MIC in the experiment with S. aureus (setting [2]) was greater than 32 µg/mL; with E. coli (setting [2]), 1 to 8 µg/mL (≈ 1.85 to 14.8 µM); in the experiment on K. pneumoniae (setting [2]), 1 to 8 µg/mL (≈ 1.85 to 14.8 µM).

As for `CC(=O)NCC(Cc1ccc(C#Cc2ccc(CN3CCOCC3)cc2)cc1)c1nc[nH]c(=O)c1O` (centres unmarked) [Compound 19, N-(2-(5-hydroxy-6-oxo-1,6-dihydropyrimidin-4-yl)-3-(4-((4-(morpholinomethyl)phenyl)ethynyl)phenyl)propyl)acetamide], the results for the MIC in the experiment with S. aureus (setting [2]), with E. coli (setting [2]) and in the experiment on K. pneumoniae (setting [2]) were greater than 32 µg/mL, 1 to 8 µg/mL (≈ 2.06 to 16.4 µM) and 8 to 32 µg/mL (≈ 16.4 to 65.8 µM), respectively.

With `C=CC(=O)NCC(Cc1ccc(C#Cc2ccc(CN3CCOCC3)cc2)cc1)c1nc[nH]c(=O)c1O` (centres unmarked) [Compound 20, N-(2-(5-hydroxy-6-oxo-1,6-dihydropyrimidin-4-yl)-3-(4-((4-(morpholinomethyl)phenyl)ethynyl)phenyl)propyl)acrylamide], the MIC in the experiment on S. aureus (setting [2]) was greater than 32 µg/mL; with E. coli (setting [2]) it was 1 to 8 µg/mL (≈ 2.01 to 16 µM); in the experiment on K. pneumoniae (setting [2]), 8 to 32 µg/mL (≈ 16 to 64.2 µM).

Regarding `COC(=O)NCC(Cc1ccc(C#Cc2ccc(CN3CC4CCC(C3)O4)cc2)cc1)c1nc[nH]c(=O)c1O` (centres unmarked) [Compound 21, methyl (3-(4-((4-((8-oxa-3-azabicyclo[3.2.1]octan-3-yl)methyl)phenyl)ethynyl)phenyl)-2-(5-hydroxy-6-oxo-1,6-dihydropyrimidin-4-yl)propyl)carbamate], the MIC was greater than 32 µg/mL in the experiment on S. aureus (setting [2]), 1 to 8 µg/mL (≈ 1.89 to 15.1 µM) with E. coli (setting [2]) and 8 to 32 µg/mL (≈ 15.1 to 60.5 µM) in the experiment with K. pneumoniae (setting [2]).

`CC(NC(=O)CF)C(Cc1ccc(C#Cc2ccc(CN3CCOCC3)cc2)cc1)c1nc[nH]c(=O)c1O` (centres unmarked) [Compound 42, 2-fluoro-N-(3-(5-hydroxy-6-oxo-1,6-dihydropyrimidin-4-yl)-4-(4-((4-(morpholinomethyl)phenyl)ethynyl)phenyl)butan-2-yl)acetamide]: the MIC in the experiment with S. aureus, in the experiment with E. coli and in the experiment on K. pneumoniae was greater than 32 µg/mL in each case.

With `O=C(CF)NCC(Cc1ccc(C#Cc2ccc(CN3CCCC3)cc2)cc1)c1nc[nH]c(=O)c1O` (centres unmarked) [Compound 44, 2-fluoro-N-(2-(5-hydroxy-6-oxo-1,6-dihydropyrimidin-4-yl)-3-(4-((4-(pyrrolidin-1-ylmethyl)phenyl)ethynyl)phenyl)propyl)acetamide], the MIC in the experiment with S. aureus, with E. coli and in the experiment with K. pneumoniae was greater than 32 µg/mL each time.

Turning to `N[C@@H]1CCN(Cc2ccc(C#Cc3ccc(CC(CNC(=O)CF)c4nc[nH]c(=O)c4O)cc3)cc2)C1` (stereo partly drawn) [Compound 45, N-(3-(4-((4-(((R)-3-aminopyrrolidin-1-yl)methyl)phenyl)ethynyl)phenyl)-2-(5-hydroxy-6-oxo-1,6-dihydropyrimidin-4-yl)propyl)-2-fluoroacetamide], the MIC in the experiment on S. aureus, with E. coli and in the experiment on K. pneumoniae was greater than 32 µg/mL in each case.

As to `O=C(CN1CCC1)NCC(Cc1ccc(C#Cc2ccc(CN3CCOCC3)cc2)cc1)c1nc[nH]c(=O)c1O` (centres unmarked) [Compound 46, 2-(azetidin-1-yl)-N-(2-(5-hydroxy-6-oxo-1,6-dihydropyrimidin-4-yl)-3-(4-((4-(morpholinomethyl)phenyl)ethynyl)phenyl)propyl)acetamide], the MIC in the experiment on S. aureus (setting [2]), in the experiment on E. coli (setting [2]) and with K. pneumoniae (setting [2]) was greater than 32 µg/mL throughout.

For `C=CCNCC(Cc1ccc(C#Cc2ccc(CN3CCOCC3)cc2)cc1)c1nc[nH]c(=O)c1O` (centres unmarked) [Compound 56, 6-(1-(allylamino)-3-(4-((4-(morpholinomethyl)phenyl)ethynyl)phenyl)propan-2-yl)-5-hydroxypyrimidin-4(3H)-one], the IC50 on E. coli LpxC was in the range of 10 to 50 nM.

At E. coli LpxC, `C[C@H]1CN(Cc2ccc(C#Cc3ccc(CC(CNCCF)c4nc[nH]c(=O)c4O)cc3)cc2)C[C@H](C)O1` (stereo partly drawn) [Compound 79, 6-(1-(4-((4-(((2S,6S)-2,6-dimethylmorpholino)methyl)phenyl)ethynyl)phenyl)-3-((2-fluoroethyl)amino)propan-2-yl)-5-hydroxypyrimidin-4(3H)-one] showed an IC50 of 100 to 1000 nM.

Molecule `CS(=O)(=O)NCC(Cc1ccc(C#Cc2ccc(CN3CCOCC3)cc2)cc1)c1nc[nH]c(=O)c1O` (centres unmarked) [Compound 80, N-(2-(5-hydroxy-6-oxo-1,6-dihydropyrimidin-4-yl)-3-(4-((4-(morpholinomethyl)phenyl)ethynyl)phenyl)propyl) methanesulfonamide] registered an IC50 on E. coli LpxC of 100 to 1000 nM.

For the molecule `Cc1nnc(NCC(Cc2ccc(C#Cc3ccc(CN4CCOCC4)cc3)cc2)c2nc[nH]c(=O)c2O)o1` (centres unmarked) [Compound 87, 5-hydroxy-6-(1-((5-methyl-1,3,4-oxadiazol-2-yl)amino)-3-(4-((4-(morpholinomethyl)phenyl)ethynyl)phenyl)propan-2-yl)pyrimidin-4(3H)-one], the IC50 at E. coli LpxC was in the range of 50 to 100 nM.

On E. coli LpxC, `O=c1[nH]cnc(CCc2ccc(C#Cc3ccc(CN4CCOCC4)cc3)c(F)c2)c1O` [Compound 98, 6-(3-fluoro-4-((4-(morpholinomethyl)phenyl)ethynyl)phenethyl)-5-hydroxypyrimidin-4(3H)-one] returned an IC50 of less than 10 nM.

On to `O=c1[nH]cnc(CCc2ccc(C#Cc3ccc(CN4CCOCC4)cc3F)cc2)c1O` [Compound 185, 6-(4-((2-fluoro-4-(morpholinomethyl)phenyl)ethynyl)phenethyl)-5-hydroxypyrimidin-4(3H)-one], for which the MIC in the experiment with S. aureus (setting [2]) was greater than 32 µg/mL; with E. coli (setting [2]), less than 1 µg/mL; with K. pneumoniae (setting [2]), less than 1 µg/mL.

As for `O=c1[nH]cnc(CCc2ccc(C#Cc3ccc(CN4CCOCC4)c(F)c3)cc2)c1O` [Compound 186, 6-(4-((3-fluoro-4-(morpholinomethyl)phenyl)ethynyl)phenethyl)-5-hydroxypyrimidin-4(3H)-one], the MIC was greater than 32 µg/mL with S. aureus (setting [2]), less than 1 µg/mL with E. coli (setting [2]) and less than 1 µg/mL with K. pneumoniae (setting [2]).

For the molecule `O=c1[nH]cnc(CCc2ccc(C#Cc3ccc(CN4CC(O)C4)cc3)c(F)c2)c1O` [Compound 187, 6-(3-fluoro-4-((4-((3-hydroxyazetidin-1-yl)methyl)phenyl)ethynyl)phenethyl)-5-hydroxypyrimidin-4(3H)-one], the activity at 4 µg/mL in experiment [1] lay within 50 to 80%. The activity at 8 µg/mL in experiment [1] fell in the range of 50 to 80%. Besides, the activity at 16 µg/mL in experiment [1] lay within 20 to 50%. Further, the MIC is greater than 32 µg/mL in the experiment with S. aureus (setting [2]), less than 1 µg/mL in the experiment with E. coli (setting [2]) and less than 1 µg/mL with K. pneumoniae (setting [2]).

For the molecule `N#CC1CN(Cc2ccc(C#Cc3ccc(CCc4nc[nH]c(=O)c4O)cc3F)cc2)C1` [Compound 188, 1-(4-((2-fluoro-4-(2-(5-hydroxy-6-oxo-1,6-dihydropyrimidin-4-yl)ethyl)phenyl)ethynyl)benzyl)azetidine-3-carbonitrile], the minimal inhibitory concentration (MIC) was greater than 32 µg/mL with S. aureus (setting [2]), less than 1 µg/mL with E. coli (setting [2]) and 1 to 8 µg/mL (≈ 2.33 to 18.7 µM) in the experiment on K. pneumoniae (setting [2]).

In the case of `O=c1[nH]cnc(CCc2ccc(C#Cc3ccc(CNC4CCOC4)cc3)cc2)c1O` (centres unmarked) [Compound 241, 5-hydroxy-6-(4-((4-(((tetrahydrofuran-3-yl)amino)methyl)phenyl)ethynyl)phenethyl)pyrimidin-4(3H)-one], the results for the MIC in the experiment with S. aureus (setting [2]), in the experiment on E. coli (setting [2]) and in the experiment on K. pneumoniae (setting [2]) were greater than 32 µg/mL, less than 1 µg/mL and less than 1 µg/mL, respectively.

Regarding `COCCNCc1ccc(C#Cc2ccc(CCc3nc[nH]c(=O)c3O)cc2)cc1` [Compound 245, 5-hydroxy-6-(4-((4-(((2-methoxyethyl)amino)methyl)phenyl)ethynyl)phenethyl)pyrimidin-4(3H)-one], the MIC in the experiment on S. aureus (setting [2]) was greater than 32 µg/mL; in the experiment with E. coli (setting [2]) it was less than 1 µg/mL; with K. pneumoniae (setting [2]) it was 1 to 8 µg/mL (≈ 2.48 to 19.8 µM).
